Test results reported in a melting point compilation (Tetko et al.; mined from patent text by program, amines drawn as free bases though some values may be those of a salt).

| Structure (SMILES) | melting point |
| --- | --- |
| COC(=O)c1ccc(Cc2cn(CC(=O)N(C)C)c3ccc(NC(=O)CC4CCCC4)cc23)c(OC)c1 | 129 to 132 °C |
| CCOc1cc(CC)ccc1C1CCN(CCCCNC(=O)c2ccc(NC(=O)c3ccc(Cl)cc3)cc2)CC1 | 250 °C |
| C=CCNC(=O)c1ccc(-c2ccc3nnn(Cc4ccc5ncccc5c4)c3n2)cc1F | 162 to 164 °C |
| N#Cc1ccc(C(Cc2ccc(OC(F)(F)F)cc2)Cn2cncn2)cc1 (centres undefined) | 70 °C |
| O=S(=O)(c1ccc(N2CCCCC2)cc1)N1CCCC1=S | 195 to 200 °C |
| O=C1c2ccccc2-c2c1c1ccccc1c(=O)n2CCO | 201 to 204 °C |
| CCCCc1nc(C(C)(C)O)c(C(=O)OCOC(=O)C(C)(C)C)n1Cc1ccc(-c2ccccc2C(=O)O)cc1 | 139 to 144 °C |
| FC(F)(F)COc1ccc(OCc2ccccc2)cc1 | 72 to 74 °C |
| O=C1Nc2ccc(Cl)cc2C(C#Cc2ccccc2)(C(F)(F)F)O1 (single isomer, unassigned; (-)) | 178 to 179 °C |
| CC(=O)Oc1ccc(NC(C)=C2C(=O)OC(=O)C(C(C)=O)=C2O)cc1 | 199 to 201 °C |
| CC(C)(C)OC(=O)CNC1Cc2ccccc2C1 | 54 to 55 °C |
| CCn1c(NC)n[nH]c1=O | 208 to 210 °C |
| Cn1cc(CN2CCN(CCOc3ccc(C=C4SC(=O)NC4=O)cc3)CC2)c2ccccc21 | 183 to 188 °C |
| O=C(O)COc1cccc(CCc2nc(-c3ccccc3)c(-c3ccccc3)[nH]2)c1 | 244 to 246 °C |
| C(=C\c1nc(COc2ccc(CCCn3cnc4ccccc43)cc2)co1)/c1ccccc1 | 115 to 117 °C |
| CN1CCc2nc3ccc(Cl)cc3c(Cl)c2C1 | 88 to 89 °C |
| COc1cc2c(cc1OC)CN(CCCOc1ccc(NC(=O)c3nccc4ccccc34)cc1)CC2 | 160 °C |
| Oc1ccc(-c2noc3c(Br)cc(O)cc23)cc1 | 267 to 270 °C |
| Cc1c(SCCCSc2sccc2[N+](=O)[O-])ccnc1CO | 134 to 138 °C |
| CCCCCCCCCCCCNC(=O)c1cc(-c2cccc(C(F)(F)F)c2)c(OCC(=O)O)c(-c2cccc(C(F)(F)F)c2)c1 | 154 to 158 °C |
| CC(=O)OCc1nccc(OCCCOc2ccc3ncc([N+](=O)[O-])n3n2)c1C | 148 to 151 °C |
| CNCc1cc2c(=O)c(C(=O)NCc3ccc(Cl)cc3)cn(C)c2s1 | 196 to 199 °C |
| Cc1ccc(S(=O)(=O)NC(=O)C2C(=O)CC(CC(C)C)CC2=O)cc1 (centres undefined) | 128 to 130 °C |
| CCn1c(C)nc2cc(S(=O)(=O)c3cccc4cnccc34)c([N+](=O)[O-])cc21 | 245 to 250 °C |
| CCCc1c(OCCCCCOc2ccccc2CCCC(=O)O)ccc2c1OCCC2=O | 116 to 118 °C |

| Structure (SMILES) | melting point |
| --- | --- |
| CSCc1nnc(-c2ccc3occ(-c4cccc(OC(F)(F)F)c4)c3c2)o1 | 84 to 85 °C |
| CCCCCCOc1ccc(CCCCCCCCC(=O)O)cc1 | 79 to 81 °C |
| CC(=O)Nc1cccc(NC(=O)C=C(C)C)c1 | 144 to 148 °C |
| Cc1ccc(SCC(CCC(=O)O)C(=O)O)cc1C (centres undefined) | 96 to 98 °C |
| CCCCC(=Nc1sc(Cl)cc1C(=O)NCCC)OC | 110 to 112 °C |
| C=CCNC(=O)N1CC(Oc2cccc(C(F)(F)F)c2)C1 | 75 to 76 °C |
| O=C1NCC(C(=O)NCCO[N+](=O)[O-])S1 (centres undefined) | 114 to 115 °C |
| Cc1c(SCCCSCCO)ccnc1CNc1cnc2ccccc2c1 | 125 to 126 °C |
| CN1C(=O)S/C(=C\c2cn(-c3ccccc3)nc2OCc2ccccc2)C1=O | 226 to 227 °C |
| CC(C)(C)c1cc2c(c(C(C)(C)C)c1O)CC1(CCCCC1)S2 | 128 °C |
| COc1cc2c(c(Cl)c1Cl)C(=O)C(C)(c1ccccc1)C2c1ccccc1 (centres undefined) | 197 to 207 °C |
| COc1ccc2c(c1)CCC1C2CCC2(C)C(=NN(C)C)CCC12 (centres undefined) | 98 to 100 °C |
| Cc1c(C(C)F)nc[nH]c1=O (centres undefined) | 108 to 109 °C |
| O=C(CCc1ccccc1)Oc1n[nH]c(=O)c2nc3cc(Cl)cc(Cl)c3c(O)c12 | > 395 °C |
| COc1cc(OC)nc(-c2c(C)[nH]c3c(C)cccc23)n1 | 145 to 147 °C |
| N#CC(=NOS(=O)(=O)CCCCl)c1cccs1 | 56 to 58 °C |
| COC1CCC2C3CCC4CC(=O)C=CC4(C)C3CCC12C (centres undefined) | 115 to 117 °C |
| CC(C)Nc1nccc(C(=O)C(=O)c2ccc(F)cc2)n1 | 75 to 77 °C |
| CCOC(=O)c1cnc2n(c1=O)C(C)CC=C2N(C)c1ccccc1 (centres undefined) | 140 to 142 °C |
| Cc1ccc(-n2nc(CC(=O)N(C)C)c3c4ccc(Cl)cc4n(C)c3c2=O)cn1 | 253 to 255 °C |
| CCCCCCCNC(=O)Nc1ccccc1CCc1cc(C(C)(C)C)c(O)c(C(C)(C)C)c1 | 100 °C |
| COc1cc(OCc2nc(-c3ccco3)oc2C)ccc1C=O | 111 to 112 °C |
| CCCCCCCCNc1nc(NCC(O)C2CC(C)(C)NC(C)(C)C2)nc(NCC(O)C2CC(C)(C)NC(C)(C)C2)n1 (centres undefined) | 117 to 119 °C |
| O=C(O)c1c(Br)ccc(OCc2ccccc2Cl)c1OCc1ccccc1Cl | 156 to 158 °C |
